Reference: patent US11931424B2, “Combination MCL-1 inhibitors with anti-body drug conjugates” (Gilead Sciences, Inc., priority 2021, dated 2024)
Where a name gives a salt, the structure may show the parent alone.

System: panel of breast cancer cell lines
Assay: Compound A with targeted agents and chemotherapies, 72-hour in vitro proliferation assays
Assay type: cell-based
Conditions: 72-hour proliferation
[1] = AU565 cell line, compound A × partner
[2] = BT-20 cell line, compound A × partner
[3] = CAL-51 cell line, compound A × partner
[4] = CAL-85-1 cell line, compound A × partner
[5] = CAL-120 cell line, compound A × partner
[6] = CAL-148 cell line, compound A × partner
[7] = CAMA-1 cell line, compound A × partner
[8] = DU-4475 cell line, compound A × partner
[9] = EVSA-T cell line, compound A × partner
[10] = MCF7 cells, Compound A × partner agent

Nc1ccn([C@@H]2O[C@H](CO)[C@@H](O)C2(F)F)c(=O)n1 [Gemcitabine Hydrochloride]
Best CI [1]: 0.56 | Bliss Volume [1]: 10.13 | HSA volume [1]: 3.57 | Loewe Volume [1]: 2.71 | Synergy Score [1]: 9.40 | Best CI [2]: 0.70 | Bliss Volume [2]: 4.35 | HSA volume [2]: 4.94 | Loewe Volume [2]: 3.32 | Synergy Score [2]: 11.12 | Best CI [3]: 0.47 | Bliss Volume [3]: 3.26 | HSA volume [3]: 3.22 | Loewe Volume [3]: 3.49 | Synergy Score [3]: 5.10 | Best CI [4]: 0.58 | Bliss Volume [4]: 9.98 | HSA volume [4]: 8.91 | Loewe Volume [4]: 7.81 | Synergy Score [4]: 10.96 | Best CI [5]: 0.21 | Bliss Volume [5]: −5.00 | HSA volume [5]: −5.87 | Loewe Volume [5]: −4.98 | Synergy Score [5]: 0.88 | Best CI [6]: 0.36 | Bliss Volume [6]: 19.19 | HSA volume [6]: 20.88 | Loewe Volume [6]: 20.22 | Synergy Score [6]: 35.99 | Best CI [7]: 0.06 | Bliss Volume [7]: 26.55 | HSA volume [7]: 18.50 | Loewe Volume [7]: 18.89 | Synergy Score [7]: 40.36 | Bliss Volume [8]: −3.76 | HSA volume [8]: −3.58 | Loewe Volume [8]: −2.68 | Synergy Score [8]: 0.17 | Best CI [9]: 1.07 | Bliss Volume [9]: 9.65 | HSA volume [9]: 2.02 | Loewe Volume [9]: 1.29 | Synergy Score [9]: 5.11 | Best CI (HCC38, compound A × partner): 0.51 | Bliss Volume (HCC38, compound A × partner): 21.72 | HSA volume (HCC38, compound A × partner): 8.18 | Loewe Volume (HCC38, compound A × partner): 6.75 | Synergy Score (HCC38, compound A × partner): 14.50 | Best CI (HCC70, compound A × partner): 0.26 | Bliss Volume (HCC70, compound A × partner): 18.66 | HSA volume (HCC70, compound A × partner): 18.52 | Loewe Volume (HCC70, compound A × partner): 17.52 | Synergy Score (HCC70, compound A × partner): 26.37 | Best CI (HCC1143, compound A × partner): 0.15 | Bliss Volume (HCC1143, compound A × partner): 4.32 | HSA volume (HCC1143, compound A × partner): 8.39 | Loewe Volume (HCC1143, compound A × partner): 7.81 | Synergy Score (HCC1143, compound A × partner): 9.41 | Best CI (HCC1569, compound A × partner): 0.68 | Bliss Volume (HCC1569, compound A × partner): 3.74 | HSA volume (HCC1569, compound A × partner): 6.80 | Loewe Volume (HCC1569, compound A × partner): 6.28 | Synergy Score (HCC1569, compound A × partner): 5.52 | Best CI (HCC1806, compound A × partner): 0.13 | Bliss Volume (HCC1806, compound A × partner): 17.89 | HSA volume (HCC1806, compound A × partner): 18.06 | Loewe Volume (HCC1806, compound A × partner): 17.74 | Synergy Score (HCC1806, compound A × partner): 30.81 | Best CI (HCC1937, compound A × partner): 0.45 | Bliss Volume (HCC1937, compound A × partner): 2.34 | HSA volume (HCC1937, compound A × partner): 0.77 | Loewe Volume (HCC1937, compound A × partner): 2.36 | Synergy Score (HCC1937, compound A × partner): 2.33 | Best CI (HCC1954, compound A × partner): 0.28 | Bliss Volume (HCC1954, compound A × partner): 3.78 | HSA volume (HCC1954, compound A × partner): 5.17 | Loewe Volume (HCC1954, compound A × partner): 5.09 | Synergy Score (HCC1954, compound A × partner): 7.13 | Best CI (HCC2218, compound A × partner): 0.36 | Bliss Volume (HCC2218, compound A × partner): 5.46 | HSA volume (HCC2218, compound A × partner): 4.02 | Loewe Volume (HCC2218, compound A × partner): 2.80 | Synergy Score (HCC2218, compound A × partner): 6.54 | Best CI (HDQ-P1, compound A × partner): 0.40 | Bliss Volume (HDQ-P1, compound A × partner): −3.49 | HSA volume (HDQ-P1, compound A × partner): −0.19 | Loewe Volume (HDQ-P1, compound A × partner): 0.42 | Synergy Score (HDQ-P1, compound A × partner): 2.05 | Best CI (HMC-1-8, compound A × partner): 0.19 | Bliss Volume (HMC-1-8, compound A × partner): 24.97 | HSA volume (HMC-1-8, compound A × partner): 9.34 | Loewe Volume (HMC-1-8, compound A × partner): 8.40 | Synergy Score (HMC-1-8, compound A × partner): 17.19 | Best CI (JIMT-1, compound A × partner): 0.05 | Bliss Volume (JIMT-1, compound A × partner): 4.37 | HSA volume (JIMT-1, compound A × partner): 3.74 | Loewe Volume (JIMT-1, compound A × partner): 3.50 | Synergy Score (JIMT-1, compound A × partner): 1.80 | Synergy Score [10]: 11.61

CN(C)C(=O)c1cc2cnc(Nc3ccc(N4CCNCC4)cn3)nc2n1C1CCCC1 [LEE011]
Best CI [1]: 1.01 | Bliss Volume [1]: −1.41 | HSA volume [1]: −6.50 | Loewe Volume [1]: −4.57 | Synergy Score [1]: 1.58 | Best CI [2]: 0.78 | Bliss Volume [2]: −2.26 | HSA volume [2]: −1.79 | Loewe Volume [2]: −2.17 | Synergy Score [2]: 2.30 | Best CI [3]: 0.77 | Bliss Volume [3]: −1.68 | HSA volume [3]: −1.56 | Loewe Volume [3]: −1.27 | Synergy Score [3]: 0.34 | Best CI [4]: 0.64 | Bliss Volume [4]: −5.58 | HSA volume [4]: −9.15 | Loewe Volume [4]: −7.95 | Synergy Score [4]: 0.23 | Best CI [5]: 0.62 | Bliss Volume [5]: −1.14 | HSA volume [5]: −5.68 | Loewe Volume [5]: −5.28 | Synergy Score [5]: 0.15 | Best CI [6]: 0.86 | Bliss Volume [6]: −4.27 | HSA volume [6]: −5.99 | Loewe Volume [6]: −4.10 | Synergy Score [6]: 0.81 | Best CI [7]: 0.73 | Bliss Volume [7]: −3.85 | Loewe Volume [7]: −6.51 | Synergy Score [7]: 1.09 | Best CI [8]: 0.47 | Bliss Volume [8]: 1.64 | HSA volume [8]: 0.20 | Loewe Volume [8]: 1.04 | Synergy Score [8]: 0.98 | Best CI [9]: 0.63 | Bliss Volume [9]: −0.43 | HSA volume [9]: −2.18 | Synergy Score [9]: 0.34 | Best CI (HCC38, compound A × partner): 0.44 | Bliss Volume (HCC38, compound A × partner): −4.85 | HSA volume (HCC38, compound A × partner): −8.61 | Loewe Volume (HCC38, compound A × partner): −9.77 | Synergy Score (HCC38, compound A × partner): 1.12 | Best CI (HCC70, compound A × partner): 0.93 | Bliss Volume (HCC70, compound A × partner): −0.15 | HSA volume (HCC70, compound A × partner): 0.16 | Loewe Volume (HCC70, compound A × partner): 0.49 | Synergy Score (HCC70, compound A × partner): 6.12 | Bliss Volume (HCC1143, compound A × partner): −3.25 | HSA volume (HCC1143, compound A × partner): −7.75 | Loewe Volume (HCC1143, compound A × partner): −9.95 | Synergy Score (HCC1143, compound A × partner): 1.30 | Best CI (HCC1569, compound A × partner): 0.47 | Bliss Volume (HCC1569, compound A × partner): 5.70 | HSA volume (HCC1569, compound A × partner): 1.89 | Loewe Volume (HCC1569, compound A × partner): 5.08 | Synergy Score (HCC1569, compound A × partner): 3.87 | Best CI (HCC1806, compound A × partner): 0.56 | Bliss Volume (HCC1806, compound A × partner): −3.98 | HSA volume (HCC1806, compound A × partner): −8.72 | Loewe Volume (HCC1806, compound A × partner): −4.05 | Synergy Score (HCC1806, compound A × partner): 0.65 | Best CI (HCC1937, compound A × partner): 0.74 | Bliss Volume (HCC1937, compound A × partner): 2.31 | HSA volume (HCC1937, compound A × partner): −2.66 | Loewe Volume (HCC1937, compound A × partner): 1.04 | Synergy Score (HCC1937, compound A × partner): 2.13 | Best CI (HCC1954, compound A × partner): 0.72 | Bliss Volume (HCC1954, compound A × partner): −0.75 | Loewe Volume (HCC1954, compound A × partner): −1.17 | Synergy Score (HCC1954, compound A × partner): 4.48 | Best CI (HCC2218, compound A × partner): 0.73 | Bliss Volume (HCC2218, compound A × partner): −5.40 | HSA volume (HCC2218, compound A × partner): −4.99 | Loewe Volume (HCC2218, compound A × partner): −5.90 | Synergy Score (HCC2218, compound A × partner): 1.69 | Best CI (HDQ-P1, compound A × partner): 0.04 | Bliss Volume (HDQ-P1, compound A × partner): −2.80 | HSA volume (HDQ-P1, compound A × partner): −6.22 | Loewe Volume (HDQ-P1, compound A × partner): −9.02 | Synergy Score (HDQ-P1, compound A × partner): 0.15 | Best CI (HMC-1-8, compound A × partner): 0.81 | Bliss Volume (HMC-1-8, compound A × partner): 9.82 | HSA volume (HMC-1-8, compound A × partner): 5.13 | Loewe Volume (HMC-1-8, compound A × partner): 5.78 | Synergy Score (HMC-1-8, compound A × partner): 9.01 | Best CI (JIMT-1, compound A × partner): 0.00 | Bliss Volume (JIMT-1, compound A × partner): 0.29 | HSA volume (JIMT-1, compound A × partner): −2.46 | Loewe Volume (JIMT-1, compound A × partner): −4.06 | Synergy Score (JIMT-1, compound A × partner): 0.28 | Best CI (KPL-1, compound A × partner): 0.65 | Bliss Volume (KPL-1, compound A × partner): 0.36 | HSA volume (KPL-1, compound A × partner): −0.31 | Synergy Score (KPL-1, compound A × partner): 1.43

CS(=O)(=O)CCNCc1ccc(-c2ccc3ncnc(Nc4ccc(OCc5cccc(F)c5)c(Cl)c4)c3c2)o1 [Lapatinib Ditosylate]
Best CI [1]: 0.44 | Best CI [2]: 0.18 | Best CI (BT-474 cell line, compound A × partner): 0.02 | Best CI (BT-549 cell line, compound A × partner): 0.45 | Best CI [3]: 1.14 | Best CI [4]: 0.58 | Best CI [5]: 1.36 | Best CI [6]: 0.38 | Best CI [7]: 0.90 | Best CI [8]: 0.65 | Best CI [9]: 0.77 | Best CI (HCC38, compound A × partner): 0.87 | Best CI (HCC70, compound A × partner): 0.35 | Best CI (HCC1143, compound A × partner): 0.54 | Best CI (HCC1569, compound A × partner): 0.53 | Best CI (HCC1806, compound A × partner): 0.74 | Best CI (HCC1937, compound A × partner): 1.22 | Best CI (HCC1954, compound A × partner): 0.07 | Best CI (HCC2218, compound A × partner): 0.02 | Best CI (HDQ-P1, compound A × partner): 0.87 | Best CI (HMC-1-8, compound A × partner): 0.50 | Best CI (JIMT-1, compound A × partner): 0.29 | Best CI (KPL-1, compound A × partner): 0.65 | Best CI [10]: 0.34 | Best CI (MDA-MB-175-VII cells, Compound A × partner agent): 0.32 | Best CI (MDA-MB-231 cells, Compound A × partner agent): 0.77 | Best CI (MDA-MB-361 cells, Compound A × partner agent): 0.87 | Best CI (MDA-MB-436 cells, Compound A × partner agent): 0.51 | Best CI (MDA-MB-453 cells, Compound A × partner agent): 0.45 | Best CI (MDA-MB-468 cells, Compound A × partner agent): 0.36 | Best CI (SK-BR-3 cells, Compound A × partner agent): 0.15 | Best CI (SUM159PT cells, combination of compound A with the named agent): 1.37 | Best CI (T47D cells, combination of compound A with the named agent): 0.41 | Best CI (ZR-75-1 cells, combination of compound A with the named agent): 0.73 | Best CI (ZR-75-30 cells, combination of compound A with the named agent): 0.31
